Measurements from ChEMBL document CHEMBL1139389, “Discovery of the Poly(ADP-ribose) polymerase (PARP) inhibitor 2-[(R)-2-methylpyrrolidin-2-yl]-1H-benzimidazole-4-carboxamide (ABT-888) for the treatment of cancer” (J Med Chem, 2009).

How the values were obtained:
[1] = Volume of distribution at steady state in Sprague-Dawley rat at 5 mg/kg; type: ADME, organism-based; design: dose 5 mg/kg; details: in vivo, read-out: Vdss
[2] = Clearance in Sprague-Dawley rat at 5 mg/kg; type: ADME, organism-based; design: dose 5 mg/kg; details: in vivo
[3] = Oral bioavailability in Beagle dog at 2.5 mg/kg; type: ADME, organism-based, Canis lupus familiaris; details: in vivo
[4] = Half life in Beagle dog at 2.5 mg/kg, iv; type: ADME, organism-based, Canis lupus familiaris; design: dose 2.5 mg/kg, route intravenous; details: in vivo
[5] = AUC in Beagle dog at 2.5 mg/kg, po; type: ADME, organism-based, Canis lupus familiaris; design: dose 2.5 mg/kg, route oral; details: plasma
[6] = Cmax in Beagle dog at 2.5 mg/kg, po; type: ADME, organism-based, Canis lupus familiaris; design: dose 2.5 mg/kg, route oral; details: in vivo
[7] = Volume of distribution at steady state in Beagle dog at 2.5 mg/kg; type: ADME, organism-based, Canis lupus familiaris; design: dose 2.5 mg/kg; details: in vivo, read-out: Vdss
[8] = Clearance in Beagle dog at 2.5 mg/kg; type: ADME, organism-based, Canis lupus familiaris; design: dose 2.5 mg/kg; details: in vivo
[9] = Oral bioavailability in cynomolgus monkey at 2.5 mg/kg; type: ADME, organism-based, Macaca fascicularis; details: in vivo
[10] = Half life in cynomolgus monkey at 2.5 mg/kg, iv; type: ADME, organism-based, Macaca fascicularis; design: dose 2.5 mg/kg, route intravenous; details: in vivo
[11] = AUC in cynomolgus monkey at 2.5 mg/kg, po; type: ADME, organism-based, Macaca fascicularis; design: dose 2.5 mg/kg, route oral; details: plasma
[12] = Cmax in cynomolgus monkey at 2.5 mg/kg, po; type: ADME, organism-based, Macaca fascicularis; design: dose 2.5 mg/kg, route oral; details: in vivo
[13] = Volume of distribution at steady state in cynomolgus monkey at 2.5 mg/kg; type: ADME, organism-based, Macaca fascicularis; design: dose 2.5 mg/kg; details: in vivo, read-out: Vdss
[14] = Clearance in cynomolgus monkey at 2.5 mg/kg; type: ADME, organism-based, Macaca fascicularis; design: dose 2.5 mg/kg; details: in vivo
[15] = Water solubility of compound at physiological pH; type: physicochemical
[16] = biological target: T1, Cytochrome P450 1A2 (Homo sapiens, UniProt P05177); experiment: Inhibition of CYP1A2 in human liver microsomes; type: ADME, Microsome
T1 sequence (P05177 whole entry): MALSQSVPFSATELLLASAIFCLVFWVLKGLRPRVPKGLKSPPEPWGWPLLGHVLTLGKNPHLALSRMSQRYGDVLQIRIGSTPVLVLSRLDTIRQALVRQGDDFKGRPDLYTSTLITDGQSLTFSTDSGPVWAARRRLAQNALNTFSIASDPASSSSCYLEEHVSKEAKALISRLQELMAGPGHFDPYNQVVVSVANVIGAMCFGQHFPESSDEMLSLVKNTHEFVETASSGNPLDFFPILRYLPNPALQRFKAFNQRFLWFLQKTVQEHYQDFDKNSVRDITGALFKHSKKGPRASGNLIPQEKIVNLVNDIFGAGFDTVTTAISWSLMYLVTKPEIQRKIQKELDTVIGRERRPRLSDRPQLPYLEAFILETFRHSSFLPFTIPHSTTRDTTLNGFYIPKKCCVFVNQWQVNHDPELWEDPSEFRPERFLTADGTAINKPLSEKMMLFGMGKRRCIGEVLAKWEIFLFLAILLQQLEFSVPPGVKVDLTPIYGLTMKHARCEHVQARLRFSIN

[17] = biological target: T2, Cytochrome P450 2A6 (Homo sapiens, UniProt P11509); experiment: Inhibition of CYP2A6 in human liver microsomes; type: ADME, Microsome
T2 sequence (P11509 whole entry): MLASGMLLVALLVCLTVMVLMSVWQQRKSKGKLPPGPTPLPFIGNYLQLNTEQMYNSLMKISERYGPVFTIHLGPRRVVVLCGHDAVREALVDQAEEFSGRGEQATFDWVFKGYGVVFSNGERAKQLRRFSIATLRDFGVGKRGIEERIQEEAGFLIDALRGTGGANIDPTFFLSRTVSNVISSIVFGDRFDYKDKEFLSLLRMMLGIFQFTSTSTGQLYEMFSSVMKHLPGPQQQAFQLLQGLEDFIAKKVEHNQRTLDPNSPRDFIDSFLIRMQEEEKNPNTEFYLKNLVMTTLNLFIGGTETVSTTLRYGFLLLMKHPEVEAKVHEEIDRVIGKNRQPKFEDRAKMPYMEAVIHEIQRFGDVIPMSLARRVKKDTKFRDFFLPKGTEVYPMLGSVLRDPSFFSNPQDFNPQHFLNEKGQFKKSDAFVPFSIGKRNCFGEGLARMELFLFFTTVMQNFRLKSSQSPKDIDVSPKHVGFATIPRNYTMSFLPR

[18] = biological target: Cytochrome P450 2D6 (Homo sapiens, UniProt P10635); experiment: Inhibition of CYP2D6 in human liver microsomes; type: ADME, Microsome
Chain of Cytochrome P450 2D6 (P10635 whole entry): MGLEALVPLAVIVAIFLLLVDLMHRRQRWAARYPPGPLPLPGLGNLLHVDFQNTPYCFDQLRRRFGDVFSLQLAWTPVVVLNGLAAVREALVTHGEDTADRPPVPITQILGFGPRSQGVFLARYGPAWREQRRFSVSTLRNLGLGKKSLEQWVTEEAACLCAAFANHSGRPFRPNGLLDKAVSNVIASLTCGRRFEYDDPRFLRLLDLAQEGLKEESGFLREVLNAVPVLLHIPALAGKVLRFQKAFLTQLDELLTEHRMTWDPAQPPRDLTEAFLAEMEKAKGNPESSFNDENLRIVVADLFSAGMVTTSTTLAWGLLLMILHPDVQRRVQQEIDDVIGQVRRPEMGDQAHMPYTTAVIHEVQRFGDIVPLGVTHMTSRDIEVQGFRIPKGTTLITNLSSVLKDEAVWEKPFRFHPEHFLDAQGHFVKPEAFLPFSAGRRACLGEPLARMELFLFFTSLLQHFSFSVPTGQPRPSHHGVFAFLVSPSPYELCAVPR

[19] = biological target: Cytochrome P450 2C9 (Homo sapiens, UniProt P11712); experiment: Inhibition of CYP2C9 in human liver microsomes; type: ADME, Microsome
Chain of Cytochrome P450 2C9 (P11712 whole entry): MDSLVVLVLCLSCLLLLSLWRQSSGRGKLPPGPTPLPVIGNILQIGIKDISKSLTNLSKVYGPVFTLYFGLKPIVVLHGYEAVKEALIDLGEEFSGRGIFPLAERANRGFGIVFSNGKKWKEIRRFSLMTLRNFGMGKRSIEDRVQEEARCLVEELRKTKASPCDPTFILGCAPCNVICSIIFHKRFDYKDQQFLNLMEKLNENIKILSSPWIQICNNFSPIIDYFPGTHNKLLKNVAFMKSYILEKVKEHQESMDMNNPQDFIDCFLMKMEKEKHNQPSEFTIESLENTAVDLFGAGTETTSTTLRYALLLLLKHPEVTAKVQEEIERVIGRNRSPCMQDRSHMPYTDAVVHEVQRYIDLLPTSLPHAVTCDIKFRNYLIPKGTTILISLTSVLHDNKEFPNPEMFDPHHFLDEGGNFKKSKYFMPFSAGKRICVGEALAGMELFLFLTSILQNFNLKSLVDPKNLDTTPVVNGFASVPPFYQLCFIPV

[20] = biological target: Cytochrome P450 2C19 (Homo sapiens, UniProt P33261); experiment: Inhibition of CYP2C19 in human liver microsomes; type: ADME, Microsome
Chain of Cytochrome P450 2C19 (P33261 whole entry): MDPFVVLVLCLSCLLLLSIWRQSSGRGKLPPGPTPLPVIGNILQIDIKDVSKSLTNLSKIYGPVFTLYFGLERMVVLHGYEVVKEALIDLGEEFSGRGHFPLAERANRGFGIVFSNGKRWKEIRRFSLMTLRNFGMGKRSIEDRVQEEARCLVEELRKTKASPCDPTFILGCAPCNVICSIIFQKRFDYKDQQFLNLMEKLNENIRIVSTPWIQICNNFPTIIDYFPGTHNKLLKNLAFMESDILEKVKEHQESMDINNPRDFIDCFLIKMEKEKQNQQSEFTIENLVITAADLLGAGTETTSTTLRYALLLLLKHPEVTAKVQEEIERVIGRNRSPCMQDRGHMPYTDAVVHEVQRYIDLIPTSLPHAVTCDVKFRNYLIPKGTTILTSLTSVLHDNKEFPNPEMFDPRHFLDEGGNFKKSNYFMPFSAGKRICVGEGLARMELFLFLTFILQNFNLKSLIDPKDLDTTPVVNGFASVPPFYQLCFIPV

[21] = biological target: Cytochrome P450 2E1 (Homo sapiens, UniProt P05181); experiment: Inhibition of CYP2E1 in human liver microsomes; type: ADME, Microsome
Chain of Cytochrome P450 2E1 (P05181 whole entry): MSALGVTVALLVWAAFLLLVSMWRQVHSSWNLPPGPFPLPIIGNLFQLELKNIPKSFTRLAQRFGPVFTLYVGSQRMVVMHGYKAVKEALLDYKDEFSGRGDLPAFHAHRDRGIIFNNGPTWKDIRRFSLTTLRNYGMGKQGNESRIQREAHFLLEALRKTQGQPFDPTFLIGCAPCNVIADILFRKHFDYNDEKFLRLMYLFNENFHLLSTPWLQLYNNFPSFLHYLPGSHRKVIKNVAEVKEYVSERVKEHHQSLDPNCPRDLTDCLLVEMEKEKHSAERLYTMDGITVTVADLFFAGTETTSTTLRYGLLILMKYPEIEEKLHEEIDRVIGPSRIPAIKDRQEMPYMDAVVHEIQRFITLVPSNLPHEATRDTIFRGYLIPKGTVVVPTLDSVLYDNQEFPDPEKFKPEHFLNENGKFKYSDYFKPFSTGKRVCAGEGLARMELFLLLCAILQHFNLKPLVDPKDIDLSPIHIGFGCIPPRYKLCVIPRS

[22] = biological target: Cytochrome P450 3A4 (Homo sapiens, UniProt P08684); experiment: Inhibition of CYP3A4 in human liver microsomes; type: ADME, Microsome
Chain of Cytochrome P450 3A4 (P08684 whole entry): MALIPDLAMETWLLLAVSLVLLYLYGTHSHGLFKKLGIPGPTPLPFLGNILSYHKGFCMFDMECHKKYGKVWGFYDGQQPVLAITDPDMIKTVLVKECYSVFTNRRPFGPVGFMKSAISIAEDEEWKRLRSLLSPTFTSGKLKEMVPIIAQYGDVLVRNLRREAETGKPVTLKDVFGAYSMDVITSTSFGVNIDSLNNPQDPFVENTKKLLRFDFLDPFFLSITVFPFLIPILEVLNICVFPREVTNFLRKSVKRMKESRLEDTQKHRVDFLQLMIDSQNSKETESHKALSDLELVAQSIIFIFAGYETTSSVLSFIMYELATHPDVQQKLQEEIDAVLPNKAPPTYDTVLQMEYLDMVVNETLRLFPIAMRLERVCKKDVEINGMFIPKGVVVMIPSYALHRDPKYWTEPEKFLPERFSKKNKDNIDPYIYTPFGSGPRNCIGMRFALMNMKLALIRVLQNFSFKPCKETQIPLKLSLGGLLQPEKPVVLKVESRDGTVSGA

[23] = Protein binding in human plasma at 5 uM; type: ADME, cell-free; details: read-out: PPB (converted)
[24] = Protein binding in CD1 mouse plasma at 5 uM; type: ADME, cell-free; details: read-out: PPB (converted)
[25] = Protein binding in Sprague-Dawley rat plasma at 5 uM; type: ADME, cell-free; details: read-out: PPB (converted)

Compound `C[C@]1(c2nc3c(C(N)=O)cccc3[nH]2)CCCN1` [VELIPARIB] has a Vd [1] of 3.6 L/kg, a clearance [2] of 33.3 mL/min/kg and a bioavailability [3] of 72%. For the same compound, the half-life [4] was 162 min, the AUC [5] was 3200 ng·h/mL and the Cmax [6] was 800 ng/mL. For the same compound, the Vd [7] was 2.2 L/kg, the clearance [8] was 10 mL/min/kg and the bioavailability [9] was 56%. The half-life [10] was 114 min, the AUC [11] was 1300 ng·h/mL and the Cmax [12] was 300 ng/mL. The Vd [13] was 3.1 L/kg, the clearance [14] was 18.3 mL/min/kg and the solubility [15] was > 5000 µg/mL. For the same compound, the Activity [16] was “Not Active”, the Activity [17] was “Not Active” and the Activity [18] was “Not Active”. The Activity [19] was “Not Active”, the Activity [20] was “Not Active” and the Activity [21] was “Not Active”. The Activity [22] was “Not Active”, the fraction unbound at 5 µM [23] was 0.59 and the fraction unbound at 5 µM [24] was 0.59. It also gave a fraction unbound at 5 µM [25] of 0.59.
